Experimental data published in the NIST ThermoML archive (doi:10.1016/j.jct.2017.03.006).
Numbers after ± are expanded uncertainties.

Experiment: xn = mol fraction of the nth substance listed
Settings: 333.15 K, Liquid, Vibrating tube method

Cc1ccc(C)c(C)c1 [1,2,4-trimethylbenzene] + CCCCO
mass density (40000 kPa, x2 = 0.9131): 815.6 ± 0.8 kg/m3
mass density (50000 kPa, x2 = 0): 877.4 ± 0.8 kg/m3
mass density (50000 kPa, x2 = 0.1005): 871.4 ± 0.8 kg/m3
mass density (50000 kPa, x2 = 0.2261): 865.1 ± 0.8 kg/m3
mass density (50000 kPa, x2 = 0.2999): 861.1 ± 0.8 kg/m3
mass density (50000 kPa, x2 = 0.3966): 855.9 ± 0.8 kg/m3
mass density (50000 kPa, x2 = 0.5289): 848.3 ± 0.8 kg/m3
mass density (50000 kPa, x2 = 0.6367): 841.6 ± 0.8 kg/m3
mass density (50000 kPa, x2 = 0.7249): 835.7 ± 0.8 kg/m3
mass density (50000 kPa, x2 = 0.7977): 830.5 ± 0.8 kg/m3
mass density (50000 kPa, x2 = 0.9131): 821.7 ± 0.8 kg/m3
mass density (60000 kPa, x2 = 0): 883 ± 0.8 kg/m3
mass density (60000 kPa, x2 = 0.1005): 877.1 ± 0.8 kg/m3
mass density (60000 kPa, x2 = 0.2261): 870.8 ± 0.8 kg/m3
mass density (60000 kPa, x2 = 0.2999): 866.8 ± 0.8 kg/m3
mass density (60000 kPa, x2 = 0.3966): 861.6 ± 0.8 kg/m3
mass density (60000 kPa, x2 = 0.5289): 854 ± 0.8 kg/m3
mass density (60000 kPa, x2 = 0.6367): 847.3 ± 0.8 kg/m3
mass density (60000 kPa, x2 = 0.7249): 841.4 ± 0.8 kg/m3
mass density (60000 kPa, x2 = 0.7977): 836.3 ± 0.8 kg/m3
mass density (60000 kPa, x2 = 0.9131): 827.5 ± 0.8 kg/m3
mass density (70000 kPa, x2 = 0): 888.2 ± 0.8 kg/m3
mass density (70000 kPa, x2 = 0.1005): 882.3 ± 0.8 kg/m3
mass density (70000 kPa, x2 = 0.2261): 876.2 ± 0.8 kg/m3
mass density (70000 kPa, x2 = 0.2999): 872.2 ± 0.8 kg/m3
mass density (70000 kPa, x2 = 0.3966): 866.9 ± 0.8 kg/m3
mass density (70000 kPa, x2 = 0.5289): 859.5 ± 0.8 kg/m3
mass density (70000 kPa, x2 = 0.6367): 852.7 ± 0.8 kg/m3
mass density (70000 kPa, x2 = 0.7249): 846.9 ± 0.8 kg/m3
mass density (70000 kPa, x2 = 0.7977): 841.7 ± 0.9 kg/m3
mass density (70000 kPa, x2 = 0.9131): 832.9 ± 0.9 kg/m3
mass density (80000 kPa, x2 = 0): 893.2 ± 0.8 kg/m3
mass density (80000 kPa, x2 = 0.1005): 887.4 ± 0.8 kg/m3
mass density (80000 kPa, x2 = 0.2261): 881.2 ± 0.8 kg/m3
mass density (80000 kPa, x2 = 0.2999): 877.2 ± 0.8 kg/m3
mass density (80000 kPa, x2 = 0.3966): 872 ± 0.8 kg/m3
mass density (80000 kPa, x2 = 0.5289): 864.6 ± 0.8 kg/m3
mass density (80000 kPa, x2 = 0.6367): 857.8 ± 0.9 kg/m3
mass density (80000 kPa, x2 = 0.7249): 852 ± 0.9 kg/m3
mass density (80000 kPa, x2 = 0.7977): 846.8 ± 0.9 kg/m3
mass density (80000 kPa, x2 = 0.9131): 838 ± 0.9 kg/m3
mass density (90000 kPa, x2 = 0): 898 ± 0.8 kg/m3
mass density (90000 kPa, x2 = 0.1005): 892.2 ± 0.8 kg/m3
mass density (90000 kPa, x2 = 0.2261): 886 ± 0.8 kg/m3
mass density (90000 kPa, x2 = 0.2999): 882.1 ± 0.8 kg/m3
mass density (90000 kPa, x2 = 0.3966): 876.9 ± 0.8 kg/m3
mass density (90000 kPa, x2 = 0.5289): 869.4 ± 0.9 kg/m3
mass density (90000 kPa, x2 = 0.6367): 862.7 ± 0.9 kg/m3
mass density (90000 kPa, x2 = 0.7249): 856.9 ± 0.9 kg/m3
mass density (90000 kPa, x2 = 0.7977): 851.7 ± 0.9 kg/m3
mass density (90000 kPa, x2 = 0.9131): 842.9 ± 0.9 kg/m3
mass density (100000 kPa, x2 = 0): 902.5 ± 0.8 kg/m3
mass density (100000 kPa, x2 = 0.1005): 896.8 ± 0.8 kg/m3
mass density (100000 kPa, x2 = 0.2261): 890.7 ± 0.8 kg/m3
mass density (100000 kPa, x2 = 0.2999): 886.7 ± 0.8 kg/m3
mass density (100000 kPa, x2 = 0.3966): 881.5 ± 0.9 kg/m3
mass density (100000 kPa, x2 = 0.5289): 874.1 ± 0.9 kg/m3
mass density (100000 kPa, x2 = 0.6367): 867.4 ± 0.9 kg/m3
mass density (100000 kPa, x2 = 0.7249): 861.6 ± 0.9 kg/m3
mass density (100000 kPa, x2 = 0.7977): 856.4 ± 0.9 kg/m3
mass density (100000 kPa, x2 = 0.9131): 847.6 ± 0.9 kg/m3
mass density (120000 kPa, x2 = 0): 911.1 ± 0.8 kg/m3
mass density (120000 kPa, x2 = 0.1005): 905.4 ± 0.8 kg/m3
mass density (120000 kPa, x2 = 0.2261): 899.4 ± 0.9 kg/m3
mass density (120000 kPa, x2 = 0.2999): 895.4 ± 0.9 kg/m3
mass density (120000 kPa, x2 = 0.3966): 890.3 ± 0.9 kg/m3
mass density (120000 kPa, x2 = 0.5289): 882.8 ± 0.9 kg/m3
mass density (120000 kPa, x2 = 0.6367): 876.1 ± 0.9 kg/m3
mass density (120000 kPa, x2 = 0.7249): 870.3 ± 0.9 kg/m3
mass density (120000 kPa, x2 = 0.7977): 865.2 ± 1 kg/m3
mass density (120000 kPa, x2 = 0.9131): 856.4 ± 1 kg/m3
mass density (140000 kPa, x2 = 0): 919 ± 0.8 kg/m3
mass density (140000 kPa, x2 = 0.1005): 913.3 ± 0.9 kg/m3
mass density (140000 kPa, x2 = 0.2261): 907.6 ± 0.9 kg/m3
mass density (140000 kPa, x2 = 0.2999): 903.3 ± 0.9 kg/m3
mass density (140000 kPa, x2 = 0.3966): 898.3 ± 0.9 kg/m3
mass density (140000 kPa, x2 = 0.5289): 891 ± 0.9 kg/m3
mass density (140000 kPa, x2 = 0.6367): 884.3 ± 1 kg/m3
mass density (140000 kPa, x2 = 0.7249): 878.6 ± 1 kg/m3
mass density (140000 kPa, x2 = 0.7977): 873.5 ± 1 kg/m3
mass density (140000 kPa, x2 = 0.9131): 864.5 ± 1 kg/m3
